Experimental data published in patent US8629275B2, “AHCY hydrolase inhibitors for treatment of hyper homocysteinemia” (Merck Sharp & Dohme Corp., priority 2008, dated 2014).

Assays:
[1] = target: recombinant expressed human or mouse AHCY enzyme (UniProt P23526); assay: In vitro AHCY activity assay (ThioGlo1 fluorescence, hydrolysis of SAH); type: biochemical; settings: Example 1 average of n=3, Example 2 n=1
Method: In vitro AHCY Activity Assay
The AHCY enzyme assay is based on the principle of fluorescence emission following incubation of a reactive dye with the products of an AHCY catalyzed reaction. The reactive dye (Thioglo1) binds homocysteine through its thiol-containing moiety. The products of the AHCY catalyzed reaction, adenosine and homocysteine, are produced from the hydrolysis of SAH (s-adenosylhomocysteine) through AHCY's hydrolase activity.
The reaction is optimized in 96-, 384-, 1536- and 3456-assay plate formats, with recombinant expressed human or mouse AHCY enzyme. When run under initial velocity conditions, the assay is suitable for IC50 and % inhibition calculations.
• 1) ThioGlo1 (catalog 595501, Calbiochem); 100 mM in DMSO • 2) SAH (catalog A-9384, Sigma); 4.69 mM with 0.06 N HCl • 3) Aristeromycin (catalog A-0928, Sigma); 100 mM in DMSO • 4) NAD (catalog 43410, Sigma); 14.5 mM in water • 5) EDTA in 500 mM pH 8 (catalog BP2482-100, Fisher) • 6) DTT stock 200 mM in water • 7) AHCY enzyme (diluted with 100 mM tris pH7.5) Dilutions Immediately Prior to use: • 1. SAH 750 μM (10×) (dilute with 100 mM Tris pH 7.5) • 2. Aristeromycin (10×) (dilute to 1 mM with 100 mM Tris pH7.5) • 3. ThioGlo1 (10×) (dilute to 100 μM in Tris pH7.5) • 4. AHCY assay buffer (3.3×): 3 μM DTT, 150 μM NAD, 3 mM EDTA Protocol: As per 96-Assay Plate Well • 1. […] Read plate (Ex 380 Em 510)

AHCY = target: T1, AHCY (Homo sapiens, UniProt P23526); assay: Cell-based assay of AHCY inhibition (secreted homocysteine); settings: secreted homocysteine from HEK293 and/or SH-SY5Y cells, 72 hrs; Example 1 average of n=4, Example 2 n=1
T1 construct: endogenous in cells; host or cells: HEK293 and/or SH-SY5Y
T1 sequence (P23526 2-432 limits assumed): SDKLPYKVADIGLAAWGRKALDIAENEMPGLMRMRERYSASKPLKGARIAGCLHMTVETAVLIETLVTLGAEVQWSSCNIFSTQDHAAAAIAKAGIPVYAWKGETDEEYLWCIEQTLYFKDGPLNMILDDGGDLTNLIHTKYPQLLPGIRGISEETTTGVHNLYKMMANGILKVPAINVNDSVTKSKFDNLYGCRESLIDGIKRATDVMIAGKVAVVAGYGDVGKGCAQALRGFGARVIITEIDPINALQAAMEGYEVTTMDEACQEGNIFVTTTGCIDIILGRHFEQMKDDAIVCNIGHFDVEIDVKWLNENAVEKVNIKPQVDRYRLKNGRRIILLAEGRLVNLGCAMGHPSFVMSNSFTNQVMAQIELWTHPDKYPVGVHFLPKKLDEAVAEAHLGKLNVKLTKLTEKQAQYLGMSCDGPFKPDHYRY
From the text: Cell-Based Assay of AHCY Inhibition
Post treatment collection of the adherent Hek293 and/or SH-SY5Y cells is also made for a viability and proliferation measure. Since the amount of secreted homocysteine is limited by the amount of SAH that is converted to homocysteine in the cells and its subsequent secretion, an EC50 measure and % inhibition relative to DMSO control cells can be made. Since the amount of secreted metabolites such as homocysteine can also be related to the absolute and cellular viability, an MTT (3-(4,5-Dimethylthiazol-2-yl)-2,5-diphenyltetrazolium bromide) measure of proliferation and relative cytotoxicty (as compared to control conditions) may also be made.
The day before compound treatment, plate 20,000 cells (Hek293 or SH-SY5Y) in 96 well cell culture treated plates in 100 μl of cell culture media (DMEM and 10% fetal bovine serum). • 2. Add fresh media plus compound (and DMSO treated controls) for 72 hrs. • 3. Collect conditioned media for measurement of secreted homocysteine and perform viability/proliferation assay on adherent cells. Measure of Secreted Homocysteine: • 1. Add 25 μl conditioned media, standard or control in 96-well assay plate • 2. Add 25 μl internal standard • 3. Add 10 μl reduction solution • 4. […] Detection: Fluorescence: Excitation 385 DM, Emission 515 nm • v. […] ReaDMEMd absorbance at 550 nm and 690 nM. • 6. Express readout as 550 nM-690 nM.

[2] = mice; Shea et al, Neuromolecular Medicine 2004; cited from earlier work

Compound | IC50 [1] [nM] | IC50 (AHCY) [nM] | oxidative damage and cognitive impairment [2]
Nc1ncc(F)c2c1ncn2[C@@H]1C=C[C@@H](O)[C@H]1O [Example 2, (1S, 2R, 5R)-5-(4-amino-7-fluoro-1H-imidazo[4,5-c]pyridin-1-yl)cyclopent-3-ene-1,2-diol] | 17900 | 28.2 | 
Nc1ncc(F)c2c1ncn2[C@@H]1CC[C@@H](O)[C@H]1O [Example 1, (1R,2S,3R)-3-(4-amino-7-fluoro-1H-imidazo[4,5-c]pyridin-1-yl)cyclopentane-1,2-diol] | 42 | 1.5 | 
Nc1nccc2c1ncn2[C@@H]1O[C@H](CO)[C@@H](O)[C@H]1O [3-deaza-adenosine] |  |  | prevent oxidative damage and cognitive impairment
